The source of these data is PubChem BioAssay AID1996.

≈ marks a conversion by molar mass, not a printed value.

The conditions of the series: buffer; pH 7.4; 200.0 µM.
`COc1ccc(/C=C/C(=O)N(C)C2CCCCC2)cc1Br` gave a kinetic solubility of 18 µg/mL (≈ 51.1 µM). Compound `Cc1cnc([N+](=O)[O-])n1CCOC(=O)c1cccc(F)c1` had a kinetic solubility of over 44 µg/mL. As for `CC1CC(C)(C)NC(=S)N1CCCC(=O)Nc1ccc(F)cc1` (stereo not given), the figure is 42.8 µg/mL (≈ 127 µM); as for `CCC(=O)NCc1ccc(-c2nc3ncccc3o2)cc1`, over 42.2 µg/mL.

In turn, `Clc1ccc2c(NCc3ccccc3)ccnc2c1` showed a solubility (kinetic) of 19 µg/mL (≈ 70.7 µM). Under `CC(=O)Nc1ncc(Cc2ccc(Cl)cc2Cl)s1` stands 1 µg/mL (≈ 3.32 µM); under `CC(=O)NC(CC(=O)OCc1ccc([N+](=O)[O-])cc1)c1ccccc1` (stereo not given), over 51.4 µg/mL; under `N#Cc1cc2c(nc1Cl)CCC2`, 20.2 µg/mL (≈ 113 µM). `COc1ccc(CC(=O)Nc2cc(S(=O)(=O)Nc3ccc(OC)cc3)ccc2OC)cc1` displayed a solubility (kinetic) of 14.6 µg/mL (≈ 32 µM). Under `Cc1cccc(NC(=O)CC(=O)Nc2cccc(C)c2)c1` stands 5.7 µg/mL (≈ 20.2 µM); under `CC1CN(CCCCSc2ccccc2)CC(C)O1.Cl` (stereo not given), 41.8 µg/mL; under `CCN1C(=O)/C(=C\N2CCN(C(=O)c3ccco3)CC2)SC1=S`, 1.1 µg/mL (≈ 3.13 µM).

Compound `O=C(COC(=O)/C=C/c1ccc([N+](=O)[O-])cc1)NC(=O)NC1CCCCC1` registered a solubility (kinetic) of 3.7 µg/mL (≈ 9.86 µM). As for `O=C(COc1ccccc1)N1CCN=C1SCc1cccc(F)c1`, the figure is 3.4 µg/mL (≈ 9.87 µM).

Regarding `CC1CCN(CCC(=O)Nc2nccs2)CC1`, the kinetic solubility was 33.7 µg/mL (≈ 133 µM). On to `O=C(O)CCCc1c(-[n+]2ccccc2)[nH]c2ccccc12.[Cl-]`, for which the solubility (kinetic) is over 47.5 µg/mL. Under `CN(CCN1CCOCC1)Cc1nc(-c2ccc(Cl)cc2)no1` stands 38.1 µg/mL (≈ 113 µM); under `Cc1cc(Sc2ncnc(N)c2[N+](=O)[O-])ncn1`, over 39.6 µg/mL; under `N#Cc1ccc(OS(=O)(=O)c2ccc(-c3ccon3)s2)cc1`, 11.8 µg/mL (≈ 35.5 µM). In the case of `CC(=O)NC1(C(F)(F)F)NC(=O)N(c2ccc(F)cc2)C1=O` (stereo not given), the kinetic solubility was over 47.9 µg/mL. On to `CCc1ccnc(NS(=O)(=O)c2ccc3c(c2)OCCO3)c1`, for which the kinetic solubility was determined as 7.2 µg/mL (≈ 22.5 µM). Compound `O=C(COC(=O)Cc1c(F)cccc1Cl)NC(=O)Nc1ccccc1F` registered a solubility (kinetic) of 1.9 µg/mL (≈ 4.96 µM).

As for `O=S(=O)(Nc1cccc(CCc2ccccn2)c1)c1ccc(Cl)cc1`, the kinetic solubility worked out at 19.1 µg/mL (≈ 51.2 µM). In turn, `COc1ccc(-c2onc(C)c2-c2ccc3c(c2)OCCO3)c(O)c1` yielded a solubility (kinetic) of 2.6 µg/mL (≈ 7.66 µM). The compound `O=C(Nc1ccc2[nH]c(=O)[nH]c2c1)Nc1ccc(F)cc1F` displayed a kinetic solubility of 3.7 µg/mL (≈ 12.2 µM). As to `COCCNC(=O)COCc1cc(-c2ccc3c(c2)OCO3)on1`, the kinetic solubility is over 50.1 µg/mL. Under `CC1CCCCC1NC(=S)NC(=O)c1ccccc1Cl` (stereo not given) stands 1.6 µg/mL (≈ 5.15 µM); under `Cc1ccccc1N1CCN(CC(=O)NCc2ccc(Cl)cc2)CC1`, 19.6 µg/mL (≈ 54.8 µM).

`O=C(NC1CCCCC1)Oc1ccccc1` had a solubility (kinetic) of 18.3 µg/mL (≈ 83.5 µM). Under `O=C(Nc1ccccc1C(=O)Nc1ccccc1)c1ccccc1Br` stands 0.7 µg/mL (≈ 1.77 µM).

In turn, `O=C(/C=C/c1cccc(F)c1)NCc1ccc2c(c1)OCO2` gave a solubility (kinetic) of 3.3 µg/mL (≈ 11 µM). In turn, `CN(C)C(=O)COc1ccc2c3c(c(=O)oc2c1)CCCC3` registered a solubility (kinetic) of 44.6 µg/mL (≈ 148 µM). Under `Cc1ccc(-c2cc(C(=O)NC3CCCC3)no2)cc1` stands 0.5 µg/mL (≈ 1.85 µM); under `O=C(CCc1ccccc1)OCC(=O)c1cccc([N+](=O)[O-])c1`, over 47 µg/mL. Under `CCCn1c(=S)[nH]c2ccc(C(F)(F)F)cc21` stands 20.7 µg/mL (≈ 79.5 µM). As for `CC(C)N(C(=O)CSc1nc2ccccc2c(=O)[nH]1)C(C)C`, the figure is 46.4 µg/mL (≈ 145 µM); as for `Cc1cccc(N2C(=O)/C(=C/N3CCN(C(=O)c4ccco4)CC3)C(=O)NC2=S)c1`, 2.6 µg/mL (≈ 6.13 µM); as for `Cc1nnc(NS(=O)(=O)c2ccc(N)cc2)s1`, over 40.5 µg/mL.

`CC(=O)Nc1ccc(C(=O)OCC(=O)N(c2ccccc2)C2CCCCC2)cc1` gave a solubility (kinetic) of 3.8 µg/mL (≈ 9.63 µM). On to `O=C(Nc1cccc(Cl)c1)N1C[C@H]2C[C@@H](C1)c1cccc(=O)n1C2`, for which the kinetic solubility was over 51.6 µg/mL.
